Reference: US20130216649A1, “MOUTH-MOISTENING GUM COMPOSITIONS AND PRODUCTS CONTAINING THE SAME” (Kraft Foods Global Brands LLC, priority 2010, published 2013)

Test: Effect of the spilanthol amount in a chewing gum formulation (taste, mouth moistening)
Type: in vivo
Details: below 75 ppm in a chewing gum formulation

C/C=C/C=C\CC/C=C/C(=O)NCC(C)C [spilanthol, N-isobutyl-2E,6Z,8E-decatrienamide]
effectiveness for mouth-moistening purposes: insufficient
